From paper PMC5384453, “A multi-functional PEGylated gold(III) compound: potent anti-cancer properties and self-assembly into nanostructures for drug co-delivery” (Chemical Science, 2016)

Assays:
[1] = In vivo biodistribution by ICP-MS in nude mice bearing HCT116 xenografts; details: single-dose i.v., 24 h post-treatment
Source text: Significant pulmonary hemorrhage in the alveoli and a thickening of alveolar walls were found. Also, apoptotic hepatocytes and swollen renal epithelial cells were found, leading to subsequent shrinkage of kidney tubules. […] The lower systemic toxicity of 1 can be explained by the lower accumulation of 1 in the organs of mice treated at its effective dosage, as compared to that of 3 and Au1a (Fig. S23 ^†). […] This can be attributable to the nanostructures of 1, which may lead to in vivo tumor accumulation by the EPR effect.[55] […]
point of tumor growth inhibition study, the mice treated with complex 1, 3 and Au1a, respectively, were sacrificed and tissues including liver, spleen, lung, kidney and heart were harvested. The tissues were digested with 10% HCl in concentrated HNO3 (0.1 g of tissue/1 mL). The solution mixture was heated at 60 °C for 15 h, and then diluted 50 times by ultra-pure water for ICP-MS analysis.
Determination of in vivo biodistribution of complex 1, 3 and Au1a by ICP-MS.
Nude mice bearing HCT116 xenografts were treated with 1 (13 mg/kg), or equal molar amount of Au1a (2 mg/kg) or 3 (2 mg/kg) through intravenous injection. After 24 h of the injection, the mice were sacrificed and tissues from tumor, liver, spleen, lung, kidney and heart were harvested. The tissues were digested with 10% HCl in concentrated HNO3 (0.1 g of tissue/1 mL). […]

[2] = system: HCT116 cells; assay: Flow cytometric analysis of apoptosis with propidium iodide co-staining (Fig. S14, S15); assay type: cell-based, human; details: HCT116, 2 μM
Method: with gold(III) complexes and FITC-annexin V staining. HCT116 (1×10 5 cells) and […]
annexin-binding buffer solution. The cells were then incubated with FITC-annexin V […]
at room temperature in dark for 15 min. The solution was then removed, and the cells were washed with annexin-binding buffer solution. Fluorescence images were then […]
in ice and analyzed by flow cytometry immediately. […]
staining and flow cytometry. […]
atmosphere of 5% CO2. After reaching 80% confluency, the culture medium was […]
of 5% CO2 for 45 min. The solution was then removed. The stained NCM460 cells […]
the procedure described above. […]
right fore of BALB/c nude mice. When the tumor volume reached 70 mm3 after […]
propidium iodide staining. (b) Flow cytometric analysis of NCM460 […]
annexin V and propidium iodide staining. (c) Flow cytometric analysis […]
annexin V and propidium iodide staining.

Substance: [Au(TPP–COO–PEG5000–OCH3)]Cl [Compound 1]
- higher accumulation in tumor compared to mice treated with 3 ([1]; equal molar amount (1 13 mg kg^–1, 3 2 mg kg^–1)): 2.0 fold
- higher accumulation in tumor compared to mice treated with Au1a ([1]; equal molar amount (1 13 mg kg^–1, Au1a 2 mg kg^–1)): 3.3 fold
- apoptotic cells (Q4 region, corrected) ([2]; 24 h): 35.83%
- late apoptotic events (Q2 region, corrected) ([2]; 24 h): 1.96%
- apoptotic cells (Q4 region, corrected) ([2]; 36 h): 43.83%
- late apoptotic events (Q2 region, corrected) ([2]; 36 h): 10.6%
